Tests used:
dog [1] = conditions: Chronic toxicity; beagle; Oral; Gavage/Intubation; dose end: 6 month; group: systemic; systemic / hematology / anisocytosis / anisocytosis + systemic / hematology / jolly bodies / jolly bodies + systemic / hematology / myeloid/…
mouse = conditions: Subchronic oral toxicity in rodents, cd1, Gavage/Intubation, dose end: 13 week, group: systemic
rabbit [2] = conditions: Prenatal developmental toxicity study; himalayan; Oral; Gavage/Intubation; dose end: 12 GD; group: maternal; systemic / in life observation / body weight / body weight gain + systemic / in life observation / food consumption / food consumption
rat [3] = conditions: Sub-acute repeat dose toxicity, sprague dawley, Oral, Gavage/Intubation, dose end: 28 day, group: systemic
rat [4] = conditions: Chronic toxicity; sprague dawley; Oral; Gavage/Intubation; dose end: 6 month; group: systemic; systemic / clinical chemistry / phosphorus / phosphorus + systemic / clinical chemistry / potassium / potassium + systemic / organ weight / …
rat [5] = conditions: Fertility (Segment I), sprague dawley, Oral, Gavage/Intubation, dose end: 6 PND
dog [6] = conditions: Sub-acute repeat dose toxicity, beagle, Oral, Gavage/Intubation, dose end: 1 month, group: systemic
rat [7] = conditions: Prenatal developmental toxicity study, sprague dawley, Oral, Gavage/Intubation, dose end: 17 GD
rat [8] = conditions: Subchronic oral toxicity in rodents, sprague dawley, Gavage/Intubation, dose end: 13 week, group: systemic
dog [9] = conditions: Chronic toxicity; beagle; Oral; Gavage/Intubation; dose end: 12 month; group: systemic; systemic / hematology / erythrocyte (rbc) count differential / erythrocyte (rbc) + systemic / hematology / hematocrit (hct) / hematocrit (…
rabbit [10] = conditions: Prenatal developmental toxicity study, himalayan, Oral, Gavage/Intubation, dose end: 18 GD
rabbit [11] = conditions: Prenatal developmental toxicity study, himalayan, Oral, Gavage/Intubation, dose end: 18 GD, group: maternal
[12] = systemic / clinical chemistry / creatinine / creatinine + systemic / clinical chemistry / potassium / potassium + systemic / clinical …
[13] = systemic / clinical chemistry / urea nitrogen / urea nitrogen + systemic / hematology / hemoglobin (hgb) / hemoglobin (hgb) + systemic / …
[14] = systemic / clinical chemistry / creatinine / creatinine + systemic / clinical chemistry / glucose / glucose + systemic / clinical chemistry…
[15] = group: maternal, reproductive / reproductive performance / estrous cycle / corpora lutea + reproductive / reproductive performance / implantations / …
[16] = group: parental, systemic / in life observation / body weight / body weight gain + systemic / in life observation / clinical signs / fur (altered appearance…
[17] = group: parental, systemic / in life observation / body weight / body weight gain + systemic / in life observation / food consumption / food efficiency
[18] = systemic / hematology / [other] / [other] + systemic / hematology / erythrocyte (rbc) count differential / erythrocyte (rbc) + systemic / …
[19] = systemic / hematology / erythrocyte (rbc) count differential / erythrocyte (rbc) + systemic / hematology / hematocrit (hct) / hematocrit (…
[20] = group: developmental, developmental / developmental malformation / bone / delayed ossification + developmental / developmental malformation / bone / unossified
[21] = group: maternal, systemic / in life observation / body weight / body weight gain + systemic / in life observation / food consumption / food consumption
[22] = group: maternal, systemic / in life observation / body weight / body weight gain + systemic / in life observation / food consumption / food consumption + …
[23] = systemic / clinical chemistry / phosphorus / phosphorus + systemic / clinical chemistry / potassium / potassium + systemic / clinical …
[24] = systemic / clinical chemistry / phosphorus / phosphorus + systemic / clinical chemistry / urea nitrogen / urea nitrogen + systemic / …
[25] = group: developmental, developmental / developmental malformation / limb / [other] + systemic / in life observation / body weight / fetal weight
[26] = group: maternal, reproductive / reproductive performance / aborted / aborted + reproductive / reproductive performance / premature delivery / premature …
[27] = systemic / in life observation / body weight / body weight gain + systemic / in life observation / food consumption / food consumption
[28] = systemic / in life observation / body weight / body weight gain + systemic / in life observation / food consumption / food consumption + …

Question: What does the source list for `CC(=O)S[C@H](C(=O)N[C@H]1Cc2ccccc2[C@H]2CCC[C@@H](C(=O)O)N2C1=O)C(C)C` [Ilepatril]?
Answer: LEL (dog [1]): 30 mg/kg/day; LOAEL (dog [1]): > 30 mg/kg/day; NEL (dog [1]): 10 mg/kg/day; NOAEL (dog [1]): ≥ 30 mg/kg/day; LOAEL (mouse; [12]): > 1600 mg/kg/day; NOAEL (mouse; [12]): ≥ 1600 mg/kg/day; LEL (mouse; [13]): 400 mg/kg/day; NEL (mouse; [13]): < 400 mg/kg/day; LEL (rabbit [2]): 0.8 mg/kg/day; LOAEL (rabbit [2]): > 2 mg/kg/day; NEL (rabbit [2]): 0.32 mg/kg/day; NOAEL (rabbit [2]): ≥ 2 mg/kg/day; LOAEL (rat [3]; [14]): > 1000 mg/kg/day; NOAEL (rat [3]; [14]): ≥ 1000 mg/kg/day; LEL (rat [3]; [12]): 30 mg/kg/day; NEL (rat [3]; [12]): < 30 mg/kg/day; LEL (rat [4]): 10 mg/kg/day; LOAEL (rat [4]): > 1000 mg/kg/day; NEL (rat [4]): < 10 mg/kg/day; NOAEL (rat [4]): ≥ 1000 mg/kg/day; LEL (rat [5]; [15]): 1000 mg/kg/day; LOAEL (rat [5]; [15]): > 1000 mg/kg/day; NEL (rat [5]; [15]): 100 mg/kg/day; NOAEL (rat [5]; [15]): ≥ 1000 mg/kg/day; LOAEL (rat [5]; [16]): > 1000 mg/kg/day; NOAEL (rat [5]; [16]): ≥ 1000 mg/kg/day; LEL (rat [5]; [17]): 10 mg/kg/day; NEL (rat [5]; [17]): < 10 mg/kg/day; LOAEL (dog [6]; [18]): 50 mg/kg/day; NOAEL (dog [6]; [18]): 10 mg/kg/day; LEL (dog [6]; [19]): 10 mg/kg/day; NEL (dog [6]; [19]): < 10 mg/kg/day; LEL (rat [7]; [20]): 300 mg/kg/day; LOAEL (rat [7]; [20]): 300 mg/kg/day; NEL (rat [7]; [20]): 30 mg/kg/day; NOAEL (rat [7]; [20]): 30 mg/kg/day; LEL (rat [7]; [21]): 300 mg/kg/day; LOAEL (rat [7]; [21]): 300 mg/kg/day; NEL (rat [7]; [22]): 30 mg/kg/day; NOAEL (rat [7]; [22]): 30 mg/kg/day; LOAEL (rat [8]; [23]): > 1600 mg/kg/day; NOAEL (rat [8]; [23]): ≥ 1600 mg/kg/day; LEL (rat [8]; [24]): 400 mg/kg/day; NEL (rat [8]; [24]): < 400 mg/kg/day; LEL (dog [9]): 12 mg/kg/day; LOAEL (dog [9]): > 12 mg/kg/day; NEL (dog [9]): 6 mg/kg/day; NOAEL (dog [9]): ≥ 12 mg/kg/day; LEL (rabbit [10]; group: developmental, developmental / developmental malformation / limb / [other]): 3.2 mg/kg/day; LOAEL (rabbit [10]; [25]): > 160 mg/kg/day; NEL (rabbit [10]; [25]): 1 mg/kg/day; NOAEL (rabbit [10]; [25]): ≥ 160 mg/kg/day; LOAEL (rabbit [10]; [26]): > 160 mg/kg/day; NOAEL (rabbit [10]; [26]): ≥ 160 mg/kg/day; LEL (rabbit [10]; [21]): 1 mg/kg/day; NEL (rabbit [10]; [21]): < 1 mg/kg/day; LEL (rabbit [11]; [27]): 0.8 mg/kg/day; LOAEL (rabbit [11]; [27]): 0.8 mg/kg/day; NEL (rabbit [11]; [28]): 0.32 mg/kg/day; NOAEL (rabbit [11]; [28]): 0.32 mg/kg/day
